This note sets out measurements from US10745405B2, “Glucuronide prodrugs of Janus kinase inhibitors” (THERAVANCE BIOPHARMA R&D IP, LLC, priority 2017, dated 2020).

In data set [1] the test system is β-glucuronidase in rat colon feces. The experiment in a line: Rat colon fecal homogenate stability assay. The data set is classed as in vitro ADME. As to conditions: male, Sprague Dawley, rat colon fecal supernatant-homogenate; in vitro half-life of the prodrug in rat fecal supernatant-homogenate, anaerobic, 10 μM substrate; read-out: T½. An excerpt: The compounds of the present invention contain a glucuronide prodrug moiety that is expected to be cleaved by β-glucuronidase enzyme to release a JAK inhibitor (e.g., ruxolitinib, baricitinib or oclacitinib). The objective of this assay was to determine the half-life for compounds of the present invention in the presence of β-glucuronidase in rat colon feces. Following sacrifice of a naïve male Sprague Dawley rat (˜300 g) by cardiac puncture exsanguination, the colon was ligated and removed to an anaerobic chamber (AS-580, Anaerobe Systems). The fecal content was removed within the chamber and was diluted 1:10 with phosphate buffer (1 gram fecal content to 9 mL phosphate buffer) and the resulting mixture was homogenized using a handheld Omni Tissue Master. The fecal homogenate was centrifuged at 2000 g for 10 min to remove bulk material and the supernatant was removed and used for the incubations. DMSO stock solutions (10 mM) of the test compounds and sulfasalazine (control) were prepared. Sulfasalazine was used as a positive control to confirm viability of the fecal supernatant-homogenate (see, e.g., Azad Khan et al., Clinical Science (1983) 64, 349-354). If the in vitro half-life (T½) for sulfasalazine in the fecal sample was less than 30 min, the fecal sample was deemed to be viable and in true anaerobic conditions. However, if the T½ for sulfasalazine was greater than 30 min, the fecal sample was typically contaminated with oxygen and was not viable. The final substrate concentration of each assay was 10 μM. Reactions were started by adding a 5 μL aliquot of diluted test compound stock solution into 300 μL of rat fecal supernatant-homogenate. At 0, 15, 50, 85 and 120 min post reaction initiation, a 50 μL aliquot was removed and added to a mixture of 200 μL of acetonitrile with 3% formic acid and an internal standard. All samples were centrifuged at 2000 g for 10 min after which 50 μL of supernatant was diluted into 150 μL of water for analysis on an LC-MS system. In vitro half-lives (T½) for the test compounds were calculated as follows: T½=0.693/elimination rate constant.

Data set [2] can be described thus: Oral pharmacokinetics in mouse assay. The data set is classed as in vivo. As to conditions: liberated JAK inhibitor in colon tissue, AUC0-6 h, single PO dose 5 mg/kg of prodrug, male Balb/c mice. The method, then:
When cleaved by β-glucuronidase enzyme, the compounds of the present invention release a JAK inhibitor (e.g., ruxolitinib, baricitinib or oclacitinib). The object of this assay was to determine JAK inhibitor exposure (AUC0-6 h) in colon tissue and plasma following oral dosing of compounds of the present invention in mice. Male Balb/c mice (n=2/time point) received a single PO oral gavage dose (5 mg/kg in 1:20 mixture of 5% DMSO and 1% HPMC) of the test compound. At 0.5, 2, 6 and 24 h post-dosing, mice were sacrificed via cardiac puncture exsanguination and blood samples were taken and placed into sample tubes (Microtainer, Becton, Dickinson and Company) containing sodium fluoride and then placed on ice. Plasma was obtained by centrifugation (Eppendorf centrifuge, 5804R) for 4 min at approximately 12,000 rpm at 4° C. The colons were removed from the exsanguinated mice and the colon fecal contents were gently removed. The colons were flushed with saline and patted dry. The colons were then homogenized in 3× volume of sterile water using a tissue homogenizer (Precellys homogenizer, Bertin Instruments) at approximately 4° C. All samples were stored at −80° C. for later bioanalysis. The concentration of JAK inhibitor (e.g., ruxolitinib, baricitinib or oclacitinib) in each sample was determined as follows: the plasma and colon homogenate samples were vortexed, combined with a 50 μL aliquot of rat plasma, extracted with 200 μL of ACN containing an internal standard and quantified against the internal standard by LC-MS. An area-under-the-concentration curve (AUC0-6 h) was calculated for plasma and colon test compound and liberated JAK inhibitor. A key parameter to assess suitability for localized delivery of the JAK inhibitor to the colon was the JAK inhibitor colon to plasma AUC ratio.

In the case of `CN(CCN(C)C(=O)n1ccc2c(-c3cnn([C@H](CC#N)C4CCCC4)c3)ncnc21)C(=O)OCc1ccc(O[C@@H]2O[C@H](C(=O)O)[C@@H](O)[C@H](O)[C@H]2O)c([N+](=O)[O-])c1` [Compound VII-1, (2S,3S,4S,5R,6S)-6-(4-((((2-(4-(1-((R)-2-Cyano-1-cyclopentylethyl)-1H-pyrazol-4-yl)-N-methyl-7H-pyrrolo[2,3-d]pyrimidine-7-carboxamido)ethyl)-(methyl)carbamoyl)oxy)methyl)-2-nitrophenoxy)-3,4,5-trihydroxytetrahydro-2H-pyran-2-carboxylic Acid], in data set [1], the half-life at 10 μM was below 5 min. Further, in data set [2], the “Colon AUC” value was found to be 7.4 µg·h/g.

On to `CNS(=O)(=O)C[C@H]1CC[C@H](N(C)c2ncnc3c2ccn3C(=O)N(C)CCN(C)C(=O)OCc2ccc(O[C@@H]3O[C@H](C(=O)O)[C@@H](O)[C@H](O)[C@H]3O)c([N+](=O)[O-])c2)CC1` [Compound VII-3, (2S,3S,4S,5R,6S)-3,4,5-Trihydroxy-6-(4-(((methyl(2-(N-methyl-4-(methyl((1r,4r)-4-((N-methylsulfamoyl)methyl)cyclohexyl)amino)-7H-pyrrolo[2,3-d]pyrimidine-7-carboxamido)ethyl)carbamoyl)oxy)methyl)-2-nitrophenoxy)tetrahydro-2H-pyran-2-carboxylic Acid], for which the half-life at 10 μM in data set [1] is below 5 min. The “Colon AUC” value in data set [2] was 13.5 µg·h/g.

Regarding `CCS(=O)(=O)N1CC(CC#N)(n2cc(-c3ncnc4c3ccn4C(=O)N(C)CCN(C)C(=O)OCc3ccc(O[C@@H]4O[C@H](C(=O)O)[C@@H](O)[C@H](O)[C@H]4O)c([N+](=O)[O-])c3)cn2)C1` [Compound VII-2, (2S,3S,4S,5R,6S)-6-(4-((((2-(4-(1-(3-(Cyanomethyl)-1-(ethylsulfonyl)azetidin-3-yl)-1H-pyrazol-4-yl)-N-methyl-7H-pyrrolo[2,3-d]pyrimidine-7-carboxamido)ethyl)-(methyl)carbamoyl)oxy)methyl)-2-nitrophenoxy)-3,4,5-trihydroxytetrahydro-2H-pyran-2-carboxylic Acid], the half-life at 10 μM in data set [1] was below 5 min. For the same compound, the “Colon AUC” value in data set [2] is 17.3 µg·h/g.
